Source: ChEMBL document CHEMBL2034833, “Synthesis of chalcone-amidobenzothiazole conjugates as antimitotic and apoptotic inducing agents” (Bioorg Med Chem, 2012)

Experiments:
786-0 = assay: Growth inhibition of human 786-0 cells after 48 hrs by sulforhodamine B assay; type: functional; conditions: 786-0, 48 h
A498 = assay: Growth inhibition of human A498 cells after 48 hrs by sulforhodamine B assay; type: functional; conditions: A498, 48 h
RXF 393 = assay: Growth inhibition of human RXF393 cells after 48 hrs by sulforhodamine B assay; type: functional; conditions: RXF 393, 48 h
SN12C = assay: Growth inhibition of human SN12C cells after 48 hrs by sulforhodamine B assay; type: functional
TK-10 = assay: Growth inhibition of human TK10 cells after 48 hrs by sulforhodamine B assay; type: functional; conditions: TK-10, 48 h
UO-31 = assay: Growth inhibition of human UO31 cells after 48 hrs by sulforhodamine B assay; type: functional; conditions: UO-31, 48 h
A549 [1] = assay: Cell cycle arrest in human A549 cells assessed as cell accumulation at subG1 phase at 2 uM after 48 hrs by propidium iodide staining based flow cytometry (reference value: […]); type: functional
A549 [2] = assay: Cell cycle arrest in human A549 cells assessed as cell accumulation at subG1 phase at 4 uM after 48 hrs by propidium iodide staining based flow cytometry (reference value: […]); type: functional
A549 [3] = assay: Cell cycle arrest in human A549 cells assessed as cell accumulation at G0/G1 phase at 2 uM after 48 hrs by propidium iodide staining based flow cytometry (reference value: 70.15%); type: functional
A549 [4] = assay: Cell cycle arrest in human A549 cells assessed as cell accumulation at S phase at 4 uM after 48 hrs by propidium iodide staining based flow cytometry (reference value: […]); type: functional
A549 [5] = assay: Cell cycle arrest in human A549 cells assessed as cell accumulation at G2/M phase at 4 uM after 48 hrs by propidium iodide staining based flow cytometry (reference value: 23.75%); type: functional
[6] = Inhibition of tubulin polymerization after 1 hr by fluorescence assay
A549 [7] = assay: Induction of apoptosis in human A549 cells assessed as necrotic cells at 2 uM after 48 hrs by annexin-V FITC/propidium iodide staining based FACS analysis; type: functional
A549 [8] = assay: Growth inhibition of human A549 cells after 48 hrs by sulforhodamine B assay; type: functional; conditions: A549, 48 h
A549 [9] = assay: Induction of apoptosis in human A549 cells assessed as late apoptotic cells at 2 uM after 48 hrs by annexin-V FITC/propidium iodide staining based FACS analysis; type: functional
A549 [10] = assay: Induction of apoptosis in human A549 cells assessed as viable cells at 2 uM after 48 hrs by annexin-V FITC/propidium iodide staining based FACS analysis; type: functional; conditions: A549, 48 h, read-out: Activity
A-375 = assay: Cytotoxicity against human A375 cells after 48 hrs by MTT assay; type: functional, cell-based; conditions: A-375, 48 h
ACHN = assay: Cytotoxicity against human ACHN cells after 48 hrs by MTT assay; type: functional, cell-based
CCRF-CEM = assay: Growth inhibition of human CCRF-CEM cells after 48 hrs by sulforhodamine B assay; type: functional
RPMI-8226 = assay: Growth inhibition of human RPMI8226 cells after 48 hrs by sulforhodamine B assay; type: functional; conditions: RPMI-8226, 48 h
HOP-92 = assay: Growth inhibition of human HOP92 cells after 48 hrs by sulforhodamine B assay; type: functional; conditions: HOP-92, 48 h
NCI-H226 = assay: Growth inhibition of human NCI-H226 cells after 48 hrs by sulforhodamine B assay; type: functional; conditions: NCI-H226, 48 h
NCI-H23 = assay: Growth inhibition of human NCI-H23 cells after 48 hrs by sulforhodamine B assay; type: functional; conditions: NCI-H23, 48 h
NCI-H322M = assay: Growth inhibition of human NCI-H322M cells after 48 hrs by sulforhodamine B assay; type: functional
NCI-H460 = assay: Growth inhibition of human NCI-H460 cells after 48 hrs by sulforhodamine B assay; type: functional; conditions: NCI-H460, 48 h
COLO 205 = assay: Growth inhibition of human COLO205 cells after 48 hrs by sulforhodamine B assay; type: functional; conditions: COLO 205, 48 h
HCC 2998 = assay: Growth inhibition of human HCC2998 cells after 48 hrs by sulforhodamine B assay; type: functional; conditions: HCC 2998, 48 h
HCT-116 = assay: Growth inhibition of human HCT116 cells after 48 hrs by sulforhodamine B assay; type: functional; conditions: HCT-116, 48 h
SW-620 = assay: Growth inhibition of human SW620 cells after 48 hrs by sulforhodamine B assay; type: functional; conditions: SW-620, 48 h
DU-145 = assay: Growth inhibition of human DU145 cells after 48 hrs by sulforhodamine B assay; type: functional; conditions: DU-145, 48 h
MCF7 = assay: Growth inhibition of human MCF7 cells after 48 hrs by sulforhodamine B assay; type: functional; conditions: MCF7, 48 h
MDA-MB-231 = assay: Growth inhibition of human MDA-MB-231 cells after 48 hrs by sulforhodamine B assay; type: functional; conditions: MDA-MB-231, 48 h
SF-539 = assay: Growth inhibition of human SF539 cells after 48 hrs by sulforhodamine B assay; type: functional; conditions: SF-539, 48 h
SNB-19 = assay: Growth inhibition of human SNB19 cells after 48 hrs by sulforhodamine B assay; type: functional; conditions: SNB-19, 48 h
SNB-75 = assay: Growth inhibition of human SNB75 cells after 48 hrs by sulforhodamine B assay; type: functional; conditions: SNB-75, 48 h
U-251 = assay: Growth inhibition of human U251 cells after 48 hrs by sulforhodamine B assay; type: functional; conditions: U-251, 48 h
LOX IMVI = assay: Growth inhibition of human LOXIMVI cells after 48 hrs by sulforhodamine B assay; type: functional
Malme-3M = assay: Growth inhibition of human MALME-3M cells after 48 hrs by sulforhodamine B assay; type: functional
M14 = assay: Growth inhibition of human M14 cells after 48 hrs by sulforhodamine B assay; type: functional; conditions: M14, 48 h
MDA-MB-435 = assay: Growth inhibition of human MDA-MB-435 cells after 48 hrs by sulforhodamine B assay; type: functional; conditions: MDA-MB-435, 48 h
SK-MEL-2 = assay: Growth inhibition of human SK-MEL-2 cells after 48 hrs by sulforhodamine B assay; type: functional; conditions: SK-MEL-2, 48 h
SK-MEL-28 = assay: Growth inhibition of human SK-MEL-28 cells after 48 hrs by sulforhodamine B assay; type: functional; conditions: SK-MEL-28, 48 h
SK-MEL-5 = assay: Growth inhibition of human SK-MEL-5 cells after 48 hrs by sulforhodamine B assay; type: functional; conditions: SK-MEL-5, 48 h
UACC-257 = assay: Growth inhibition of human UACC257 cells after 48 hrs by sulforhodamine B assay; type: functional; conditions: UACC-257, 48 h
OVCAR-3 = assay: Growth inhibition of human OVCAR3 cells after 48 hrs by sulforhodamine B assay; type: functional; conditions: OVCAR-3, 48 h
NCI/ADR-RES = assay: Growth inhibition of human NCI/ADR-RES cells after 48 hrs by sulforhodamine B assay; type: functional
A549 [11] = assay: cells; conditions: Homo sapiens, A549, 48 h
Description: Cytotoxicity against human A549 cells after 48 hrs by MTT assay

COc1ccc(/C=C/C(=O)c2cc(OC)c(OC)c(OC)c2)cc1OCC(=O)Nc1nc2ccc(OC(F)(F)F)cc2s1
GI50 (786-0): 2260 nM | GI50 (A498): 7.4 µM | GI50 (RXF 393): 1580 nM | GI50 (SN12C): 1740 nM | GI50 (TK-10): 2080 nM | GI50 (UO-31): 1610 nM | Activity (A549 [1]): 4.5% | Activity (A549 [2]): 3.21% | Activity (A549 [3]): 8.51% | Activity (A549 [4]): 4.95% | Activity (A549 [5]): 83.21% | IC50 [6]: 5.2 µM | Activity (A549 [7]): 6.2% | GI50 (A549 [8]): 1990 nM | Activity (A549 [9]): 74.9% | viability at 2 µM (A549 [10]): 30.4% | IC50 (A-375): 2400 nM | IC50 (ACHN): 1730 nM | GI50 (CCRF-CEM): 2500 nM | GI50 (RPMI-8226): 2020 nM | GI50 (HOP-92): 2140 nM | GI50 (NCI-H226): 3.35 µM | GI50 (NCI-H23): 2150 nM | GI50 (NCI-H322M): 2770 nM | GI50 (NCI-H460): 2430 nM | GI50 (COLO 205): 6.37 µM | GI50 (HCC 2998): 6.18 µM | GI50 (HCT-116): 1430 nM | GI50 (SW-620): 1080 nM | GI50 (DU-145): 1560 nM | GI50 (MCF7): 1320 nM | GI50 (MDA-MB-231): 2010 nM | GI50 (SF-539): 300 nM | GI50 (SNB-19): 1580 nM | GI50 (SNB-75): 340 nM | GI50 (U-251): 700 nM | GI50 (LOX IMVI): 470 nM | GI50 (Malme-3M): 2690 nM | GI50 (M14): 1720 nM | GI50 (MDA-MB-435): 300 nM | GI50 (SK-MEL-2): 4.97 µM | GI50 (SK-MEL-28): 3.31 µM | GI50 (SK-MEL-5): 2030 nM | GI50 (UACC-257): 8.08 µM | GI50 (OVCAR-3): 1520 nM | GI50 (NCI/ADR-RES): 490 nM | IC50 (A549 [11]): 900 nM
